We go through six compounds from ChEMBL document CHEMBL3045946, “Synthesis and biological activity studies of new hybrid molecules containing tryptamine moiety” (2012).

Test [1] relates to Bacillus cereus. In words: Antibacterial activity against Bacillus cereus 702 Roma at 10 mg after 18 hr by agar well diffusion method. The format is functional. The following applies: read-out: IZ.
The test system of test [2] is Enterococcus faecalis. The experiment in a line: Antibacterial activity against Enterococcus faecalis ATCC 29212 at 10 mg after 18 hr by agar well diffusion method. The format is functional. As to conditions: ATCC 29212, 18 h, read-out: IZ. In general terms: Agar diffusion results depend on both activity and mobility in agar.
The subject of test [3] is Pseudomonas aeruginosa. In words: Antibacterial activity against Pseudomonas aeruginosa ATCC 43288 at 10 mg after 18 hr by agar well diffusion method. The format is functional. The following applies: ATCC 43288, 18 h, read-out: IZ.
Test [4] concerns Staphylococcus aureus. In words: Antibacterial activity against Staphylococcus aureus ATCC 25923 at 10 mg after 18 hr by agar well diffusion method. The following applies: ATCC 25923, 18 h, read-out: IZ. Format: functional.
In test [5] the test system is Staphylococcus aureus. In words: Antibacterial activity against Staphylococcus aureus ATCC 25923 after 18 hr by agar well diffusion method. Format: functional.
For test [6], the system named is Mycolicibacterium smegmatis. In words: Antibacterial activity against Mycobacterium smegmatis ATCC 607 after 18 hr by agar well diffusion method. The format is functional.
The subject of test [7] is Pseudomonas aeruginosa. In words: Antibacterial activity against Pseudomonas aeruginosa ATCC 43288 after 18 hr by agar well diffusion method. Format: functional.
The next test has as its system Candida tropicalis. In words: Antifungal activity against Candida tropicalis after 18 hr by agar well diffusion method. Format: functional, organism-based.
For another test, the system named is Saccharomyces cerevisiae. The experiment in a line: Antifungal activity against Saccharomyces cerevisiae RSKK 251 after 18 hr by agar well diffusion method. The format is functional, organism-based.
The test system of test [8] is Bacillus cereus. The experiment in a line: Antibacterial activity against Bacillus cereus 702 Roma after 18 hr by agar well diffusion method. The format is functional.
In test [9] the test system is Enterococcus faecalis. In words: Antibacterial activity against Enterococcus faecalis ATCC 29212 after 18 hr by agar well diffusion method. The format is functional.
The test system of the next test is Candida albicans. In words: Antifungal activity against Candida albicans ATCC 60193 after 18 hr by agar well diffusion method. The format is functional, organism-based.

Structures are written as SMILES. Active and inactive are the calls of the source. No cut-off for these calls is given here.

Turning to `CC1(C)S[C@@H]2[C@H](NC(=O)[C@H](N)c3ccccc3)C(=O)N2[C@H]1C(=O)O` [AMPICILLIN], the zone of inhibition at 10000 µg/disc with Bacillus cereus [1] worked out at 15 mm; in the test on Enterococcus faecalis [2], 10 mm; in the test on Pseudomonas aeruginosa [3] it was 18 mm; in the test with Staphylococcus aureus [4], 35 mm.

`Cc1ccc(Cc2nn(CC(=O)N/N=C/c3ccccn3)c(=O)n2CCc2c[nH]c3ccccc23)cc1`: the result (in the test on Staphylococcus aureus [5]; in test [6]; in the test with Pseudomonas aeruginosa [7]; in the test with Candida tropicalis; in the test with Saccharomyces cerevisiae; in the test with Bacillus cereus [8]) was inactive. Besides, the result in the test with Enterococcus faecalis [9] and with Candida albicans was inactive.

For the compound `O=C(Cn1nc(Cc2ccc(Cl)cc2)n(CCc2c[nH]c3ccccc23)c1=O)N/N=C/Cc1ccccc1`, the outcome (with Staphylococcus aureus [5]; in [6]; in the test with Pseudomonas aeruginosa [7]; in the test with Candida tropicalis; in the test on Saccharomyces cerevisiae; in the test on Bacillus cereus [8]) was inactive. The result in the test on Enterococcus faecalis [9] and with Candida albicans was inactive.

Regarding `O=C(Cn1nc(Cc2ccc(Cl)cc2)n(CCc2c[nH]c3ccccc23)c1=O)N/N=c1\occ(-c2ccc(Cl)cc2)n1Cc1ccccc1`, the “inhibition zone (IZ)” value in the test on Staphylococcus aureus [5] is given as 5 mm; in the test on Bacillus cereus [8], 6 mm. Moreover, the outcome (in test [6]; in the test on Pseudomonas aeruginosa [7]; in the test with Candida tropicalis; in the test on Saccharomyces cerevisiae; with Enterococcus faecalis [9]; in the test on Candida albicans) was inactive.

For the compound `O=c1n(Cc2nnc(S)o2)nc(Cc2ccc(Cl)cc2)n1CCc1c[nH]c2ccccc12`, the figures for the “inhibition zone (IZ)” value in the test on Staphylococcus aureus [5], in the test with Bacillus cereus [8] and in the test on Enterococcus faecalis [9] were 8 mm, 6 mm and 10 mm, respectively. For the same compound, the outcome (in test [6]; with Pseudomonas aeruginosa [7]; in the test on Candida tropicalis; in the test with Saccharomyces cerevisiae; in the test on Candida albicans) was inactive.

With `Cc1ccc(Cc2nn(CC(=O)NNC(=S)Nc3ccccc3)c(=O)n2CCc2c[nH]c3ccccc23)cc1`, the outcome (in the test on Staphylococcus aureus [5]; in [6]; in the test on Pseudomonas aeruginosa [7]; in the test on Candida tropicalis; with Saccharomyces cerevisiae; in the test with Bacillus cereus [8]) was inactive. Further, the result in the test with Enterococcus faecalis [9] and in the test on Candida albicans was inactive.
